Data published in patent US12180226B2, “Spirotricycle RIPK1 inhibitors and methods of uses thereof” (Merck Sharp & Dohme LLC, priority 2021, dated 2024).
Structures can show the parent of a compound that is named as a salt.

Biological target: RIPK1 (recombinant GST-RIPK1 kinase domain, residues 1-327) (Homo sapiens (Human), UniProt Q13546)
Experiment: RIPK1-ADP-Glo Enzymatic Assay
Format: biochemical
Conditions: ADP-Glo; 25 nM GST-RIPK1, 300 μM ATP; assay lower limit ~25 nM; read-out: RIPK1 V0 Ec50
In short: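 Using dephosphorylated MBP (3 μM) as substrate and 300 μM ATP, 25 nM baculovirus-produced enzyme was reacted for 150 min after a 30-min compound pre-incubation. Luminescent ADP detection followed; lower confidence limit ~25 nM.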

RIPK1 (recombinant GST-RIPK1 kinase domain, residues 1-327), sequence (Q13546 1-327): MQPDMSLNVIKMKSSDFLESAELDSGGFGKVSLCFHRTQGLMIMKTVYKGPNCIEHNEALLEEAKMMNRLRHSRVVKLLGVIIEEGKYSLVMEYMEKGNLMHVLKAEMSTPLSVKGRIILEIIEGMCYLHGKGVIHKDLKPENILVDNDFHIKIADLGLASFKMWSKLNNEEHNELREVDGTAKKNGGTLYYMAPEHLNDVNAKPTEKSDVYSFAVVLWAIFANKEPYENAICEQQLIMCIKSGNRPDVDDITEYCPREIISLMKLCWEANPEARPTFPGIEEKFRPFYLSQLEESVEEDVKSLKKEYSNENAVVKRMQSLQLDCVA

Compound	EC50 [µM]
N#Cc1cnc(N2CCC3(CC2)O[C@@H]2CC[C@@H](c4ccccc4)N2C3=O)cc1OC(F)F [Example 4.206, 4-(difluoromethoxy)-6-[(5′S,7a′R)-3′-oxo-5′-phenyltetrahydro-1H,3′H-spiro[piperidine-4,2′-pyrrolo[2,1-b] [1,3]oxazol]-1-yl]pyridine-3-carbonitrile]	< 0.025
Cc1ncc(C(=O)N2CCC3(CC2)O[C@@H]2CC[C@@H](c4cc(F)cc(F)c4)N2C3=O)cn1 [Example 6.77, (5′S,7a′R)-5′-(3,5-difluorophenyl)-1-(2-methylpyrimidine-5-carbonyl)tetrahydro-3′H-spiro[piperidine-4,2′-pyrrolo[2,1-b] [1,3]oxazol]-3′-one]	0.572
Cc1cc(N2CCC3(CC2)O[C@@H]2CC[C@@H](c4ccccc4)N2C3=O)ncc1[N+](=O)[O-] [Example 4.207, (5′S,7a′R)-1-(4-methyl-5-nitropyridin-2-yl)-5′-phenyltetrahydro-3′H-spiro[piperidine-4,2′-pyrrolo[2,1-b] [1,3]oxazol]-3′-one]	< 0.025
O=C(c1nc2ccccc2s1)N1CCC2(CC1)O[C@@H]1CC[C@@H](c3cc(F)cc(F)c3)N1C2=O [Example 6.28, (5′S,7a′R)-1-(1,3-benzothiazole-2-car-bonyl)-5′-(3,5-difluoro-phenyl)tetrahydro-3′H-spiro[piperidine-4,2′-pyrrolo[2,1-b] [1,3]oxazol]-3′-one]	0.0302
O=C(c1ccccc1)N1CCC2(CC1)O[C@@H]1CC[C@@H](c3cccc(F)c3)N1C2=O [Example 1.5, (5′S,7a′R)-1-(benzenecarbonyl)-5′-(3-fluorophenyl)tetrahydro-3′H-spiro[piperidine-4,2′-pyrrolo[2,1-b] [1,3]oxazol]-3′-one]	< 0.025
COc1ccc(C(=O)N2CCC3(CC2)O[C@@H]2CC[C@@H](c4cc(F)cc(F)c4)N2C3=O)c(F)c1 [Example 5.58, (5′S,7a′R)-5′-(3,5-difluoro-phenyl)-1-(2-fluoro-4-methoxybenzoyl)tetra-hydro-3′H-spiro[piperidine-4,2′-pyrrolo[2,1-b]oxazol]-3'-one]	0.0248
N#Cc1ccc(F)c(C(=O)N2CCC3(CC2)O[C@@H]2CC[C@@H](c4cccc(F)c4)N2C3=O)c1 [Example 6.130, 4-fluoro-3-[(5′S,7a′R)-5′-(3-fluorophenyl)-3′-oxotetrahydro-1H,3′H-spiro[piperidine-4,2′-pyrrolo[2,1-b][1,3]-oxazole]-1-carbonyl] benzonitrile]	< 0.025
O=C(c1nccs1)N1CCC2(CC1)O[C@@H]1CC[C@@H](c3cc(F)cc(F)c3)N1C2=O [Example 5.35, (5′S,7a′R)-5′-(3,5-difluoro-phenyl)-1-(thiazole-2-carbonyl)tetrahydro-3′H-spiro[piperidine-4,2′-pyrrolo[2,1-b]oxazol]-3′-one]	0.025
CC1CN(c2ncnc3ccnn23)CCC12O[C@@H]1CC[C@@H](c3cc(F)cc(F)c3)N1C2=O (stereo partly drawn) [Example 4.264, (5′S,7a′R)-5′-(3,5-difluorophenyl)-3-methyl-1-(pyrazolo[1,5-a] [1,3,5]triazin-4-yl)tetrahydro-3′H-spiro[piperidine-4,2′-pyrrolo[2,1-b] [1,3]oxazol]-3′-one]	< 0.025
COc1cccc(C(=O)N2CCC3(CC2)O[C@@H]2CC[C@@H](c4cccc(F)c4)N2C3=O)c1 [Example 6.117, (5′S,7a′R)-5′-(3-fluorophenyl)-1-(3-methoxybenzene-1-carbonyl)tetrahydro-3′H-spiro[piperidine-4,2′-pyrrolo[2,1-b] [1,3]oxazol]-3′-one]	< 0.025
O=C1N2[C@@H](CC[C@H]2c2ccccc2F)OC12CCN(c1ncc(Br)c3ncnn13)CC2 [Example 4.240, (5′S,7a′R)-1-(8-bromo [1,2,4]triazolo[1,5-c]pyrimidin-5-yl)-5′-(2-fluorophenyl)tetrahydro-3′H-spiro[piperidine-4,2′-pyrrolo[2,1-b] [1,3]oxazol]-3′-one]	< 0.025
Cc1nc(Cl)c(C)c(N2CCC3(CC2)O[C@@H]2CC[C@@H](c4ccccc4)N2C3=O)n1 [Example 4.22, (5′S,7a′R)-1-(6-chloro-2,5-dimethylpyrimidin-4-yl)-5′-phenyltetrahydro-3′H-spiro[piperidine-4,2′-pyrrolo[2,1-b] [1,3]oxazol]-3′-one]	0.0269
O=C(c1cccc(F)c1F)N1CCC2(CC1)O[C@@H]1CC[C@@H](c3cc(F)cc(F)c3)N1C2=O [Example 5.3, (5′S,7a′R)-1-(2,3-difluoro-benzene-1-carbonyl)-5′-(3,5-difluorophenyl)tetra-hydro3′H-spiro[piperidine-4,2′-pyrrolo[2,1-b][1,3]oxazol]-3′-one]	< 0.025
N#Cc1ccc(N2CCC3(CC2)O[C@@H]2CC[C@@H](c4cc(F)cc(F)c4)N2C3=O)cc1F [Example 4.18, 4-[(5′S,7a′R)-5′-(3,5-difluorophenyl)-3′-oxotetrahydro-1H,3′H-spiro[piperidine-4,2′-pyrrolo[2,1-b] [1,3]oxazol]-1-yl]-2-fluorobenzonitrile]	< 0.025
O=C1N2[C@@H](CC[C@H]2c2ccccc2)OC12CN(c1cccc3ncnn13)C2 [Example 4.133, (5′S,7a′R)-5′-phenyl-1-([1,2,4]triazolo[1,5-a]pyridin-5-yl)tetrahydro-3′H-spiro[azetidine-3,2′-pyrrolo[2,1-b] [1,3]oxazol]-3′-one]	0.0488
CC1CC2(CCN1c1ccnc3c(F)cnn13)O[C@@H]1CC[C@@H](c3ccccc3)N1C2=O (stereo partly drawn) [Example 4.224, (4R,5′S,7a′R)-1-(3-fluoropyrazolo[1,5-a]pyrimidin-7-yl)-2-methyl-5′-phenyltetrahydro-3′H-spiro[piperidine-4,2′-pyrrolo[2,1-b] [1,3]oxazol]-3′-one]	< 0.025
O=C(c1nsnc1Cl)N1CCC2(CC1)O[C@@H]1CC[C@@H](c3cc(F)cc(F)c3)N1C2=O [Example 6.19, (5′S,7a′R)-1-(4-chloro-1,2,5-thiadi-azole-3-carbonyl)-5′-(3,5-difluorophenyl)-tetrahydro-3′H-spiro [piperidine-4,2′-pyrrolo[2,1-b][1,3]oxazol]-3′-one]	< 0.025
O=C(C1CCCCC1)N1CCC2(CC1)O[C@@H]1CC[C@@H](c3cc(F)cc(F)c3)N1C2=O [Example 5.7, (5′S,7a′R)-1-(cyclohexane-carbonyl)-5′-(3,5-difluoro-phenyl)tetrahydro-3′H-spiro[piperidine-4,2′-pyrrolo[2,1-b][1,3]oxazol]-3′-one]	0.236
O=C1N2[C@@H](CC[C@H]2c2ccccc2)OC12CCN(c1ncnc3c(I)cnn13)CC2 [Example 4.219, (5′S,7a′R)-1-(8-iodopyrazolo[1,5-a] [1,3,5]triazin-4-yl)-5′-phenyltetrahydro-3′H-spiro[piperidine-4,2′-pyrrolo[2,1-b] [1,3]oxazol]-3′-one]	< 0.025
O=C(c1cccc(-c2nnco2)c1)N1CCC2(CC1)O[C@@H]1CC[C@@H](c3cc(F)cc(F)c3)N1C2=O [Example 6.64, (5′S,7a′R)-5′-(3,5-difluorophenyl)-1-[3-(1,3,4-oxadiazol-2-yl)benzene-1-carbon-yl]tetrahydro-3′H-spiro[piperidine-4,2′-pyrrolo[2,1-b][1,3]-oxazol]-3′-one]	< 0.025
O=C1N2[C@@H](CC[C@H]2c2cc(F)cc(F)c2)OC12CC1CCC(C2)N1c1ccnc2c(F)cnn12 (stereo partly drawn) [Example 4.254, (5′S,7a′R)-5′-(3,5-difluorophenyl)-8-(3-fluoropyrazolo[1,5-a]pyrimidin-7-yl)tetrahydro-3′H-spiro[8-azabicyclo[3.2.1]octane-3,2′-pyrrolo[2,1-b] [1,3]oxazol]-3′-one]	0.126
CCOc1ncccc1C(=O)N1CCC2(CC1)O[C@@H]1CC[C@@H](c3cc(F)cc(F)c3)N1C2=O [Example 6.38, (5′S,7a′R)-5′-(3,5-difluorophenyl)-1-(2-ethoxypyridine-3-carbonyl)tetrahydro-3′H-spiro[piperidine-4,2′-pyrrolo[2,1-b] [1,3]oxazol]-3′-one]	0.867
O=C1N2[C@@H](CC[C@H]2c2cc(F)cc(F)c2)OC12CCN(c1ccc(OCC(F)F)c3ccnn13)CC2 [Example 19.4, (5′S,7a′R)-1-(4-(2,2-difluoroethoxy)pyrazolo [1,5-a]pyridin-7-yl)-5′-(3,5-difluorophenyl)tetrahydro-3′H-spiro[piperidine-4,2′-pyrrolo[2,1-b]oxazol]-3′-one, TFA salt]	0.032
COc1cnc(N2CCC3(CC2)O[C@@H]2CC[C@@H](c4cc(F)cc(F)c4)N2C3=O)nc1 [Example 4.64, (5′S,7a′R)-5′-(3,5-difluorophenyl)-1-(5-methoxypyrimidin-2-yl)tetrahydro-3′H-spiro[piperidine-4,2′-pyrrolo[2,1-b] [1,3]oxazol]-3′-one]	0.0807
O=C(c1cccc2ccnn12)N1CCC2(CC1)O[C@@H]1CC[C@@H](c3cc(F)cc(F)c3)N1C2=O [Example 6.27, (5′S,7a′R)-5′-(3,5-difluorophenyl)-1-(pyrazolo[1,5-a]pyridine-7-carbonyl) tetrahydro-3′H-spiro [piperidine-4,2′-pyrrolo[2,1-b][1,3]oxazol]-3′-one]	0.0476
O=C(C1CC1)N1CCC2(CC1)O[C@@H]1CC[C@@H](c3cc(F)cc(F)c3)N1C2=O [Example 1.8, (5′S,7a′R)-1-(cyclopropanecarbonyl)-5′-(3,5-difluorophenyl)tetrahydro-3′H-spiro[piperidine-4,2′-pyrrolo[2,1-b] [1,3]oxazol]-3′-one]	0.256
Cc1nc(N2CCC3(CC2)O[C@@H]2CC[C@@H](c4ccccc4)N2C3=O)ncc1-c1cnoc1 [Example 21.9, (5′S,7a′R)-1-[4-methyl-5-(1,2-oxazol-4-yl)pyrimidin-2-yl]-5′-phenyltetrahydro-3′H-spiro[piperidine-4,2′-pyrrolo[2,1-b][1,3]oxazol]-3′-one]	0.0378
